Laboratory results from EP4722207A1, “OXOISOINDOLINYL-SUBSTITUTED TETRAHYDROPYRIMIDINEDIONE DERIVATIVE AND USE THEREOF” (Gluetacs Therapeutics (Shanghai) Co., Ltd., priority 2023, dated 2024).

Experiments:
Format in all cases: cell-based
CK1α = molecular target: T1, CK1α (Homo sapiens, UniProt P48729+Q96SW2); experiment: Western-blot assay, substrate protein degradation in hPBMCs: CK1α; details: for substrate protein remaining % CK1α: 24 hours of compound treatment, 50 nM and 500 nM; for CK1α substrate protein remaining %: compounds at 50 nM and 500 nM, 24 hours
T1 construct: effects of the compounds of the present disclosure on the expression of target proteins in cells; endogenous in cells; host or cells: human PBMCs (hPBMCs)
T1 sequence (P48729 whole entry): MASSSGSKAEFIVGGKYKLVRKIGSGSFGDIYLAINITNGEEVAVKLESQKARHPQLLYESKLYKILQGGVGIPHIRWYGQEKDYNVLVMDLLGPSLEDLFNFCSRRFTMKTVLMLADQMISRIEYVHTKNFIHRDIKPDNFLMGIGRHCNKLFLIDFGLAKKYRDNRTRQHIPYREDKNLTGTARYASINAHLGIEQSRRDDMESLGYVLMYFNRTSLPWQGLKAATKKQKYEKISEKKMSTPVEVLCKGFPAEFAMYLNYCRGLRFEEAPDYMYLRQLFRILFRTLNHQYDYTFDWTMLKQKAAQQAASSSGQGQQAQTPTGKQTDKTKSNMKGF
T1 sequence (Q96SW2 whole entry): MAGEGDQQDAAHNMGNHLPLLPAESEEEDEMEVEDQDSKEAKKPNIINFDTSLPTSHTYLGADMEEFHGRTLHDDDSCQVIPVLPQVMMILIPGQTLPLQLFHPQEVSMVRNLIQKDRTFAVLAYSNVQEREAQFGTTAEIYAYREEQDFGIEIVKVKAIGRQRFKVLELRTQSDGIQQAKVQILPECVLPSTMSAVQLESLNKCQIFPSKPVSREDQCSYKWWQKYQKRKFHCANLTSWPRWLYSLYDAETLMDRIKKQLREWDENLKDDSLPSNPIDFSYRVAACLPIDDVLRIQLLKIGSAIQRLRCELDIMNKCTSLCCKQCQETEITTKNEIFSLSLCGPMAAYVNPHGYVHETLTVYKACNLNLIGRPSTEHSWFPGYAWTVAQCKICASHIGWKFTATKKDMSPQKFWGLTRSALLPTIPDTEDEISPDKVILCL
T1 sequence (Q16531 whole entry partner): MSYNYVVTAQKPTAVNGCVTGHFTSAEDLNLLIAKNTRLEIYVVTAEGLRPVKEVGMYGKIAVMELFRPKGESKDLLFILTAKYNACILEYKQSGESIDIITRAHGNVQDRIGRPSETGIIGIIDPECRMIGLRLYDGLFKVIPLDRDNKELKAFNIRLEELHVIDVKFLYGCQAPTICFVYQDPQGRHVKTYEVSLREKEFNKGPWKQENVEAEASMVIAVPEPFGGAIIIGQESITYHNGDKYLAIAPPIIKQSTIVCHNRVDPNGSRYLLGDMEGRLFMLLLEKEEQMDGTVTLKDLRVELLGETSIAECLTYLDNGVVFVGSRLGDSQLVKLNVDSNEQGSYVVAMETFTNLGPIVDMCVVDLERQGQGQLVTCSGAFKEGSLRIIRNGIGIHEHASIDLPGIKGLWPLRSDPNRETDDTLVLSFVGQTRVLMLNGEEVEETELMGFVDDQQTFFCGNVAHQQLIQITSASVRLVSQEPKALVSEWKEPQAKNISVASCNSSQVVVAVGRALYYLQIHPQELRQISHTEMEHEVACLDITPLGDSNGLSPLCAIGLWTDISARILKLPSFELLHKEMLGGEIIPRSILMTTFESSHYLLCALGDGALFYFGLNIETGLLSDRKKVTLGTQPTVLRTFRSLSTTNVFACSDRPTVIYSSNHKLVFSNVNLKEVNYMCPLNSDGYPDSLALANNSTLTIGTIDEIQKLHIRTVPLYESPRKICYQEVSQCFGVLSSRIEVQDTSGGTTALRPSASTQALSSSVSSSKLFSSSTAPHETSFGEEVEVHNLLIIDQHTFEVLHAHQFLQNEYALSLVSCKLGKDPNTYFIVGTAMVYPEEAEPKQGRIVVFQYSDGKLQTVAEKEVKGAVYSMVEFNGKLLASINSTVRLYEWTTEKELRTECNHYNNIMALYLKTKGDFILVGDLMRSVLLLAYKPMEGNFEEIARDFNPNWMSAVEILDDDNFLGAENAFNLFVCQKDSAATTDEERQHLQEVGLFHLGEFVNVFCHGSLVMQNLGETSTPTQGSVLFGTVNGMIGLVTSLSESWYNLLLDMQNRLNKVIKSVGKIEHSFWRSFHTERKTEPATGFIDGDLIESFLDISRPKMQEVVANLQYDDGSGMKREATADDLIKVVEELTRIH

IKZF1 = molecular target: T2, IKZF1 (Homo sapiens, UniProt Q13422+Q96SW2); experiment: Western-blot assay, substrate protein degradation in hPBMCs: IKZF1; details: for substrate protein remaining % IKZF1: 24 hours of compound treatment, 50 nM and 500 nM; for IKZF1 substrate protein remaining %: compounds at 50 nM and 500 nM, 24 hours
T2 construct: effects of the compounds of the present disclosure on the expression of target proteins in cells; endogenous in cells; host or cells: human PBMCs (hPBMCs)
T2 sequence (Q13422 whole entry): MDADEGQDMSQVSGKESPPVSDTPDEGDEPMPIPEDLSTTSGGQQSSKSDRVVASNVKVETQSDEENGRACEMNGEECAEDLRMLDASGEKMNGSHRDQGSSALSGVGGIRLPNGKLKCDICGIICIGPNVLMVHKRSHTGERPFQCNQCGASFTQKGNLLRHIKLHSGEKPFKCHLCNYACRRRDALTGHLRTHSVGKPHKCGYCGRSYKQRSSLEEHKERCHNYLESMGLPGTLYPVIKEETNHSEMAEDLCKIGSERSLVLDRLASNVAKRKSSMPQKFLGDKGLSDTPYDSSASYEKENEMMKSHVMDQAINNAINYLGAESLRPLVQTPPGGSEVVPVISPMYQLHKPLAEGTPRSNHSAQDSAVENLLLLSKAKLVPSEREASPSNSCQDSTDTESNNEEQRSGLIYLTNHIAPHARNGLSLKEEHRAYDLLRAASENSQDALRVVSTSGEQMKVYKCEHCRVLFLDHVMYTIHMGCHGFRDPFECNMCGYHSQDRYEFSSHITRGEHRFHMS
T2 sequence (Q96SW2 whole entry): as the sequence (Q96SW2 whole entry) above
T2 sequence (Q16531 whole entry partner): as the sequence (Q16531 whole entry partner) above

IKZF3 = molecular target: T3, IKZF3 (Homo sapiens, UniProt Q96SW2+Q9UKT9); experiment: Western-blot assay, substrate protein degradation in hPBMCs: IKZF3; details: for substrate protein remaining % IKZF3: 24 hours of compound treatment, 50 nM and 500 nM; for IKZF3 substrate protein remaining %: compounds at 50 nM and 500 nM, 24 hours
T3 construct: effects of the compounds of the present disclosure on the expression of target proteins in cells; endogenous in cells; host or cells: human PBMCs (hPBMCs)
T3 sequence (Q9UKT9 whole entry): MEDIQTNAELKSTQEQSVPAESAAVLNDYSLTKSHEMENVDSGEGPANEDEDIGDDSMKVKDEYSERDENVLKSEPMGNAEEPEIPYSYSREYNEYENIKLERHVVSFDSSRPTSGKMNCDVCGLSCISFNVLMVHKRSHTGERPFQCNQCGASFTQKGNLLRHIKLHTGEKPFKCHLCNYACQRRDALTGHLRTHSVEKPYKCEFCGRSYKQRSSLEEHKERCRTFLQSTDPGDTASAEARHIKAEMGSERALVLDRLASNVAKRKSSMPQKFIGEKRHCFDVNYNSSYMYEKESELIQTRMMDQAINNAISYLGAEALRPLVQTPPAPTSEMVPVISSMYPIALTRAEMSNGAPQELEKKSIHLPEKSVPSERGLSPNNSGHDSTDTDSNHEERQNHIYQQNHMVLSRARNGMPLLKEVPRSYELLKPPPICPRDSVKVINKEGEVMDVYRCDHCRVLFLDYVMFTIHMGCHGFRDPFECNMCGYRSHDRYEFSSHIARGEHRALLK
T3 sequence (Q96SW2 whole entry): as the sequence (Q96SW2 whole entry) above
T3 sequence (Q16531 whole entry partner): as the sequence (Q16531 whole entry partner) above

GSPT1 = molecular target: T4, GSPT1 (Homo sapiens, UniProt P15170+Q96SW2); experiment: Western-blot assay, substrate protein degradation in hPBMCs: GSPT1; details: for substrate protein remaining % GSPT1: 24 hours of compound treatment, 50 nM and 500 nM; for GSPT1 substrate protein remaining %: compounds at 50 nM and 500 nM, 24 hours
T4 construct: effects of the compounds of the present disclosure on the expression of target proteins in cells; endogenous in cells; host or cells: human PBMCs (hPBMCs)
T4 sequence (P15170 whole entry): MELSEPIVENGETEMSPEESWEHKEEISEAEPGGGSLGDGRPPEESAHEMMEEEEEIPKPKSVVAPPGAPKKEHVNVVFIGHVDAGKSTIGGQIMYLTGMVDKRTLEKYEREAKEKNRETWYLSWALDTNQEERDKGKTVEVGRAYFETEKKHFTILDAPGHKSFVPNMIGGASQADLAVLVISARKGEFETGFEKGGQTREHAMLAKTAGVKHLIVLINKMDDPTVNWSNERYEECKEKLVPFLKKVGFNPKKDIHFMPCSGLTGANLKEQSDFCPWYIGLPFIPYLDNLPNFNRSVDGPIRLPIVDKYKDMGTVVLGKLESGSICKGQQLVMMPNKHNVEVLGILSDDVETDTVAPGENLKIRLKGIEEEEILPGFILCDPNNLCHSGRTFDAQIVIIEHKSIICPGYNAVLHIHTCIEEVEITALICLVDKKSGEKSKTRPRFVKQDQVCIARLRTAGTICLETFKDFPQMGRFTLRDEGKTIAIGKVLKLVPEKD
T4 sequence (Q96SW2 whole entry): as the sequence (Q96SW2 whole entry) above
T4 sequence (Q16531 whole entry partner): as the sequence (Q16531 whole entry partner) above

IKZF2 = molecular target: T5, IKZF2 (Homo sapiens, UniProt Q96SW2+Q9UKS7); experiment: Western-blot assay, substrate protein degradation in hPBMCs: IKZF2; details: for substrate protein remaining % IKZF2: 24 hours of compound treatment, 50 nM and 500 nM; for IKZF2 substrate protein remaining %: compounds at 50 nM and 500 nM, 24 hours
T5 construct: effects of the compounds of the present disclosure on the expression of target proteins in cells; endogenous in cells; host or cells: human PBMCs (hPBMCs)

WEE1 = molecular target: T6, WEE1 (Homo sapiens, UniProt P30291+Q96SW2); experiment: Western-blot assay, substrate protein degradation in hPBMCs: WEE1; details: for substrate protein remaining % WEE1: 24 hours of compound treatment, 50 nM and 500 nM; for WEE1 substrate protein remaining %: compounds at 50 nM and 500 nM, 24 hours
T6 construct: effects of the compounds of the present disclosure on the expression of target proteins in cells; endogenous in cells; host or cells: human PBMCs (hPBMCs)
T6 sequence (P30291 whole entry): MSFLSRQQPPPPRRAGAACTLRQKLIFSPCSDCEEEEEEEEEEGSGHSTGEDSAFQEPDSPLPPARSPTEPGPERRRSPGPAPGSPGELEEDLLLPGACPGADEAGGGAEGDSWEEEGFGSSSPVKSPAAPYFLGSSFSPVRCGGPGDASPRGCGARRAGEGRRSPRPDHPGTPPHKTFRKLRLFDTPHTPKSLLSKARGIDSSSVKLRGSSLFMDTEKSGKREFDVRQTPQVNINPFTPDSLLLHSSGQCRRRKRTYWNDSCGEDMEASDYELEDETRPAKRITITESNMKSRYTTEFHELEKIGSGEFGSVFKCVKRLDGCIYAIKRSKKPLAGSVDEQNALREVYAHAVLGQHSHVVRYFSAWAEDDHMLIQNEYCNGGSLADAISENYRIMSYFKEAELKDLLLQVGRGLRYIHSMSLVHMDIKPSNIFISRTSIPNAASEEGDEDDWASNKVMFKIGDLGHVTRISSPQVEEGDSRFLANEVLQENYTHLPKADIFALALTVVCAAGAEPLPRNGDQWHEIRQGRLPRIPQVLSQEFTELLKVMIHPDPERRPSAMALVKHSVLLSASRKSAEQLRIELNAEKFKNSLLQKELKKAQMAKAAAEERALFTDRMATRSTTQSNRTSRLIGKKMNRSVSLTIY
T6 sequence (Q96SW2 whole entry): as the sequence (Q96SW2 whole entry) above
T6 sequence (Q16531 whole entry partner): as the sequence (Q16531 whole entry partner) above

SMILES	substrate protein remaining % CK1α (CK1α)	CK1α substrate protein remaining % (CK1α)	substrate protein remaining % IKZF1 (IKZF1)	IKZF1 substrate protein remaining % (IKZF1)	substrate protein remaining % IKZF3 (IKZF3)	IKZF3 substrate protein remaining % (IKZF3)	substrate protein remaining % GSPT1 (GSPT1)	GSPT1 substrate protein remaining % (GSPT1)	substrate protein remaining % IKZF2 (IKZF2)	IKZF2 substrate protein remaining % (IKZF2)	substrate protein remaining % WEE1 (WEE1)	WEE1 substrate protein remaining % (WEE1)
O=C1CCN(N2Cc3cc(CN4CCN(c5ccncc5Br)CC4)ccc3C2=O)C(=O)N1 [GT-05439, 1-(5-((4-(3-bromopyridin-4-yl)piperazin-1-yl)methyl)-1-oxoisoindolin-2-yl)dihydropyrimidine-2,4(1H,3H)-dione]	A (0% ≤ substrate protein remaining % ≤ 80%)	B ("B" is defined as 80%< substrate protein remaining %≤ 100%)	B (80%< substrate protein remaining %≤ 100%)	B ("B" is defined as 80%< substrate protein remaining %≤ 100%)	A (0% ≤ substrate protein remaining % ≤ 80%)	B ("B" is defined as 80%< substrate protein remaining %≤ 100%)	A (0% ≤ substrate protein remaining % ≤ 80%)	B ("B" is defined as 80%< substrate protein remaining %≤ 100%)	B (80%< substrate protein remaining %≤ 100%)	B ("B" is defined as 80%< substrate protein remaining %≤ 100%)	A (0% ≤ substrate protein remaining % ≤ 80%)	A ("A" is defined as 0% ≤ substrate protein remaining % ≤ 80%)
O=C1CCN(N2C(=O)c3ccc(CN4CC5CCC4CN5C(c4ccccc4)c4ccccc4)cc3C2=O)C(=O)N1 (stereo not drawn) [GT-06451, 5-((5-benzhydryl-2,5-diazabicyclo[2.2.2]octan-2-yl)methyl)-2-(2,4-dioxotetrahydropyrimidin-1(2H)-yl)isoindoline-1,3-dione]		B ("B" is defined as 80%< substrate protein remaining %≤ 100%)		B ("B" is defined as 80%< substrate protein remaining %≤ 100%)		B ("B" is defined as 80%< substrate protein remaining %≤ 100%)		B ("B" is defined as 80%< substrate protein remaining %≤ 100%)		B ("B" is defined as 80%< substrate protein remaining %≤ 100%)		A ("A" is defined as 0% ≤ substrate protein remaining % ≤ 80%)
Cc1ccsc1C1CCN(Cc2ccc3c(c2)C(=O)N(N2CCC(=O)NC2=O)C3=O)CC1 [GT-07306, 2-(2,4-dioxotetrahydropyrimidin-1(2H)-yl)-5-((4-(3-methylthiophen-2-yl)piperidin-1-yl)methyl)isoindoline-1,3-dione]	B (80%< substrate protein remaining %≤ 100%)		B (80%< substrate protein remaining %≤ 100%)		A (0% ≤ substrate protein remaining % ≤ 80%)		A (0% ≤ substrate protein remaining % ≤ 80%)		B (80%< substrate protein remaining %≤ 100%)		B (80%< substrate protein remaining %≤ 100%)	
O=C1CCN(N2C(=O)c3ccc(CN4CCC(c5cccs5)CC4)cc3C2=O)C(=O)N1 [GT-07424, 2-(2,4-dioxotetrahydropyrimidin-1(2H)-yl)-5-((4-(thiophen-2-yl)piperidin-1-yl)methyl)isoindoline-1,3-dione]	B (80%< substrate protein remaining %≤ 100%)		A (0% ≤ substrate protein remaining % ≤ 80%)		A (0% ≤ substrate protein remaining % ≤ 80%)		A (0% ≤ substrate protein remaining % ≤ 80%)		B (80%< substrate protein remaining %≤ 100%)		A (0% ≤ substrate protein remaining % ≤ 80%)	
Cc1cc(N2CCN(Cc3ccc4c(c3)CN(N3CCC(=O)NC3=O)C4=O)CC2)cc(C)n1 [GT-07033, 1-(5-((4-(2,6-dimethylpyridin-4-yl)piperazin-1-yl)methyl)-1-oxoisoindolin-2-yl)dihydropyrimidine-2,4(1H,3H)-dione]		B ("B" is defined as 80%< substrate protein remaining %≤ 100%)		B ("B" is defined as 80%< substrate protein remaining %≤ 100%)		B ("B" is defined as 80%< substrate protein remaining %≤ 100%)		A ("A" is defined as 0% ≤ substrate protein remaining % ≤ 80%)		B ("B" is defined as 80%< substrate protein remaining %≤ 100%)		B ("B" is defined as 80%< substrate protein remaining %≤ 100%)
O=C1CCN(N2Cc3cc(CN4CCN(c5noc6cc(F)ccc56)CC4)ccc3C2=O)C(=O)N1 [GT-07496, 1-(5-((4-(6-fluorobenzo[d]isoxazol-3-yl)piperazin-1-yl)methyl)-1-oxoisoindolin-2-yl)dihydropyrimidine-2,4(1H,3H)-dione]	A (0% ≤ substrate protein remaining % ≤ 80%)		B (80%< substrate protein remaining %≤ 100%)		B (80%< substrate protein remaining %≤ 100%)		A (0% ≤ substrate protein remaining % ≤ 80%)		B (80%< substrate protein remaining %≤ 100%)		B (80%< substrate protein remaining %≤ 100%)	
O=C1CCN(N2C(=O)c3ccc(CN4CCN(c5c[nH]c6ncccc56)CC4)cc3C2=O)C(=O)N1 [GT-07528, 5-((4-(1H-pyrrolo[2,3-b]pyridin-3-yl)piperazin-1-yl)methyl)-2-(2,4-dioxotetrahydropyrimidin-1(2H)-yl)isoindoline-1,3-dione]	A (0% ≤ substrate protein remaining % ≤ 80%)		B (80%< substrate protein remaining %≤ 100%)		B (80%< substrate protein remaining %≤ 100%)		A (0% ≤ substrate protein remaining % ≤ 80%)		B (80%< substrate protein remaining %≤ 100%)		B (80%< substrate protein remaining %≤ 100%)	
O=C1CCN(N2Cc3cc(CN4CCN(c5cc(Cl)nnc5Cl)CC4)ccc3C2=O)C(=O)N1 [GT-07030, 1-(5-((4-(3,6-dichloropyridazin-4-yl)piperazin-1-yl)methyl)-1-oxoisoindolin-2-yl)dihydropyrimidine-2,4(1H,3H)-dione]		B ("B" is defined as 80%< substrate protein remaining %≤ 100%)		B ("B" is defined as 80%< substrate protein remaining %≤ 100%)		B ("B" is defined as 80%< substrate protein remaining %≤ 100%)		B ("B" is defined as 80%< substrate protein remaining %≤ 100%)		A ("A" is defined as 0% ≤ substrate protein remaining % ≤ 80%)		B ("B" is defined as 80%< substrate protein remaining %≤ 100%)
CC1(C)CC(c2ccc(Cl)cc2)=C(CN2CCN(Cc3ccc4c(c3)C(=O)N(N3CCC(=O)NC3=O)C4=O)CC2)CO1 [GT-07304, 5-((4-((4-(4-chlorophenyl)-6,6-dimethyl-5,6-dihydro-2H-pyran-3-yl)methyl)piperazin-1-yl)methyl)-2-(2,4-dioxotetrahydropyrimidin-1(2H)-yl)isoindoline-1,3-dione]	A (0% ≤ substrate protein remaining % ≤ 80%)		B (80%< substrate protein remaining %≤ 100%)		B (80%< substrate protein remaining %≤ 100%)		A (0% ≤ substrate protein remaining % ≤ 80%)		B (80%< substrate protein remaining %≤ 100%)		B (80%< substrate protein remaining %≤ 100%)	
